From patent US4883869A, “Novel beta-lactams containing amino acid substituents” (The Upjohn Company, priority 1988, dated 1989)
Counter-ions that a name gives are not always drawn.

How the values were obtained:
Experiment in all cases: Minimum inhibitory concentration by agar dilution, Mueller Hinton Agar (NCCLS M7-A)
Format in all cases: cell-based
[1] = system: Enterobacter cloacae; settings: 20 h, 35° C.
Experimental: (§1) The compounds of this invention and their respective pharmaceutically acceptable salts have antibiotic activity against a variety of gram-negative bacteria including Escherichia coli, Klebsiella pneumoniae, and Pseudomonas aeruginosa. The compounds are useful for treating bacterial infections in animals, including and most preferably humans. Compounds of the invention are tested for in vitro antimicrobial activity using standard testing procedures such as the determination of minimum inhibitory concentration (MIC) by methods described in "Methods for Dilution Antimicrobial Susceptibility Tests for Bacteria That Grow Aerobically" (M7-A) Published December 1985 by the National Committee for Clinical Laboratory Standards, 771 East Lancaster Avenue, Villanova, PA 19084. Briefly, MIC values are determined in unsupplemented Mueller Hinton Agar (MHA). The compounds tested are diluted serially into molten MHA at 47° C. The agar is poured into petri dishes and allowed to harden. The various bacteria used for testing are grown overnight on MHA at 35° C. and transferred to Tryptiease Soy Broth (TSB) until a turbidity of 0.5 McFarland standard is obtained. The bacteria are diluted one to twenty in TSB and inoculated on the plates (1 μl using a Steers replicator).

[2] = system: Klebsiella oxytoca; settings: 20 h, 35° C.
Experimental: as §1

[3] = system: Proteus vulgaris; settings: Culture No. 9679, MHA, 35° C., 20 hours
Experimental: as §1

[4] = system: Streptococcus pneumoniae; settings: Culture No. 41, MHA, 35° C., 20 hours
Experimental: as §1

[5] = system: Streptococcus faecalis; settings: Enterococcus faecalis; Culture No. 694; MHA, 35° C., 20 hours
Experimental: as §1

[6] = system: Serratia marcescens; settings: Culture No. 6888, MHA, 35° C., 20 hours
Experimental: as §1

[7] = system: Pseudomonas aeruginosa; settings: 20 h, 35° C.
Experimental: as §1

[8] = system: Klebsiella pneumoniae; settings: Culture No. 58, MHA, 35° C., 20 hours
Experimental: as §1

[9] = system: Staphylococcus aureus; settings: MHA, 35° C., 20 hours; for MIC: Staphylococcus aureus, Culture No. 6675
Experimental: as §1

[10] = system: Citrobacter freundii; settings: Culture No. 3507, MHA, 35° C., 20 hours
Experimental: as §1

[11] = system: Escherichia coli; settings: 20 h, 35° C.
Experimental: as §1

[12] = system: Streptococcus pyogenes; settings: Culture No. 152, MHA, 35° C., 20 hours
Experimental: as §1

Row | MIC ([1]; Culture No. 9381, MHA) [µg/mL] | MIC ([1]; Culture No. 9382, MHA) [µg/mL] | MIC ([2]; Culture No. 9383, MHA) [µg/mL] | MIC ([2]; Culture No. 9384, MHA) [µg/mL] | MIC [3] [µg/mL] | MIC [4] [µg/mL] | MIC [5] [µg/mL] | MIC [6] [µg/mL] | MIC ([7]; Culture No. 6432, MHA) [µg/mL] | MIC ([7]; Culture No. 6676, MHA) [µg/mL] | MIC ([7]; Culture No. 9191, MHA) [µg/mL] | MIC ([7]; Culture No. 30133, MHA) [µg/mL] | MIC [8] [µg/mL] | MIC [9] [µg/mL] | MIC [10] [µg/mL] | MIC ([11]; Culture No. 311, MHA) [µg/mL] | MIC ([11]; Culture No. 9379, MHA) [µg/mL] | MIC ([11]; Culture No. 9380, MHA) [µg/mL] | SMILES | Minimum Inhibitory Concentration ([9]; Culture No. 3665) [MCG per ML] | Minimum Inhibitory Concentration ([9]; Culture No. 6685) [MCG per ML] | also measured
1 | 64 | 0.25 | 1 | 0.125 | 0.125 | 128 | > 128 | 0.5 | 64 | 8 | 8 | 16 | 0.125 | > 128 | 0.25 | 0.125 | 0.25 | 0.25 | NCC(=O)OCC1C(NC(=O)C(=NOCC(=O)O)c2csc(N)n2)C(=O)N1S(=O)(=O)O (mixture of isomers) [Compound 11, Cis-(±)-3-[[2'-(2"-amino-4"-thiazolyl)-(Z)-2'-(1'"-carboxymethoxy)imino]acetamido]-4-[N-glycinoyloxymethyl]-2-oxo-1-azetidinesulfonic acid] | > 128 | > 128 | MIC [12]: 16 µg/mL
2 | 64 | 0.125 | 0.5 | 0.06 | < 0.03 | 64 | > 128 | 0.25 | 8 | 4 | 4 | 8 | 0.06 | > 128 | 0.125 | 0.06 | 0.125 | 0.25 | Nc1nc(C(=NOCC(=O)O)C(=O)NC2C(=O)N(S(=O)(=O)O)C2COC(=O)CNC=O)cs1 (mixture of isomers) [Compound 7, Cis-(±)-[2'-(2"-amino-4"-thiazolyl)-(Z)-2'-(1"-carboxymethoxy)imino]acetamido-4-[N-formylglycinoyloxymethyl]-2-oxo-1-azetidinesulfonic acid monopotassium salt] | > 128 | > 128 | MIC ([11]; Culture No. 9451, MHA): 0.125 µg/mL; MIC [12]: 16 µg/mL
